Source: patent publication US9828622B2, “Photoactivatable antimicrobial agents and therapeutic and diagnostic methods of using same” (The General Hospital Corporation, priority 2008, dated 2017)
“Also recorded” adds a separate entry of the source. Where two headings read alike, the source gives them in different places.

What was measured:
B. cereus = assay: Growth inhibition / MIC assay; assay type: cell-based, Bacillus cereus
Procedure: (§1) (a.) inhibition constants of a panel of β-lactams for the competitive substrate inhibition of β-LEAP hydrolysis by B. cereus β-lactamase, (b.) inhibition constants for β-LEAP hydrolysis by bacterial suspensions, (c.) inhibition profiles of panel of β-lactams for B. cereus, (d.) MICs of panel of β-lactams for B. cereus. […] Statistical significance was determined via Tukey multiple comparison test using Graphpad Prism 5. Horizontal bars connected by solid intersections indicate significant difference.
(§2) This approach involved combining in a 384 multi-well assay plate format purified B. cereus beta-lactamase or bacterial suspensions with the β-LEAP of the invention and a competitive beta-lactam substrate, including amoxicillin, clavulanic acid, ampicillin, penicillin G, carbenicillin, cefazolin, cefatoxime or ceftazidime.

[1] = target: purified B. cereus beta-lactamase; assay: Competitive substrate inhibition of β-LEAP hydrolysis, purified enzyme; assay type: biochemical, Bacillus cereus; details: competitive beta-lactam substrate; 384 multi-well plate
Procedure: as §1
(§3) This Example describes a new methodology for use in characterizing beta-lactamases by using a competitive substrate inhibition assay. It is believed that no competitive substrate inhibition assays for determining beta-lactamase functionality are currently in use by clinical microbiology laboratories. This new approach is based on exploiting the sensitivity and mechanism of the β-LEAP compound of the invention. More in particular, this approach is based on measuring the level of induced-fluorescence caused by the cleavage/hydrolysis and consequent activation of the β-LEAP compound by beta-lactamase enzymes under evaluation while also in the presence of, or “in competition” with, different types and amounts of beta-lactamase enzyme substrates. The degree of inhibition of β-LEAP hydrolysis/fluorescence due to competition with the beta-lactam competitor substrates is determined, which provides the basis for determining beta-lactamase functionality.
as §2

[2] = target: Bacillus cereus 5/β bacterial suspensions; assay: Competitive substrate inhibition of β-LEAP hydrolysis, bacterial suspensions; assay type: cell-based; details: competitive beta-lactam substrate; whole bacteria suspensions
Procedure: as §1, §3, §2

[3] = Photosensitizing efficacy
Source text: The terminal carboxyl group with the flexible alkyl chain provides an ideal site for conjugation. 7-amino-3-chloromethyl-3-cephem-4-carboxylic acid p-methoxybenzyl ester (ACLE, commercial available) is used as cephalosporin scaffold. ACLE is a common starting material to synthesize cephalosporin derivatives. It integrates an amino group at 7-position. By replacing chlorine at 3′-position with 4-amino-thiophenol provides an additional amino group therefore each ACLE molecule can accommodate two EtNBS-COOH molecules to form a static quenching pair.

| Compound | in vitro growth inhibition (MIC assay) (B. cereus) | inhibition of β-LEAP hydrolysis/fluorescence (inhibition constants, Ki, FIG. 13a) [1] | inhibition of β-LEAP hydrolysis/fluorescence (inhibition constants, Ki, FIG. 13b) [2] | other results |
| --- | --- | --- | --- | --- |
| O=C(O)[C@H]1/C(=C/CO)O[C@@H]2CC(=O)N21 [clavulanic acid] | no inhibition; also recorded: did not inhibit the growth | – | – | – |
| CC1(C)S[C@@H]2[C@H](NC(=O)[C@H](N)c3ccccc3)C(=O)N2[C@H]1C(=O)O [ampicillin] | did not inhibit the growth | detected | – | in vitro growth inhibition (MIC assay) (B. cereus; listed as ampillin): no inhibition |
| CO/N=C(\C(=O)N[C@@H]1C(=O)N2C(C(=O)O)=C(COC(C)=O)CS[C@H]12)c1csc(N)n1 [cefatoxime] | – | more effective inhibitors | more effective inhibitors | – |
| CCN(CC)c1ccc2nc3c(cc(NCCCCC(=O)O)c4ccccc43)[s+]c2c1 [EtNBS-COOH, 5-(4′-carboxybutylamino)-9-diethylaminobenzo[a]phenothiazine] | – | – | – | photosensitizing efficacy [3]: excellent photosensitizing efficacy |
| cephalothin | – | more effective inhibitors | more effective inhibitors | – |
| CC(C)(O/N=C(\C(=O)N[C@@H]1C(=O)N2C(C(=O)[O-])=C(C[n+]3ccccc3)CS[C@H]12)c1csc(N)n1)C(=O)O [ceftazidime] | – | more effective inhibitors | more effective inhibitors | – |
| CC1(C)S[C@@H]2[C@H](NC(=O)[C@H](N)c3ccc(O)cc3)C(=O)N2[C@H]1C(=O)O [amoxicillin] | no inhibition | detected | – | in vitro growth inhibition (MIC assay) (B. cereus; listed as Amoxicillin): did not inhibit the growth |
